Tested on: hepatocytes
Experiment: Seq-Well scRNA-Seq of hepatocytes after APAP overdose (signature scores, DEG vs untreated)
Assay type: in vivo, mouse

## CC(=O)Nc1ccc(O)cc1 [APAP, acetaminophen]
A96 vs untreated (UT)
  Slc25a10 avg_logFC: 0.2508
  Slc25a10 pct.1: 0.701
  Slc25a13 avg_logFC: 0.2573
  Slc25a13 pct.1: 0.786
  Slc25a20 avg_logFC: 0.3215
  Slc25a20 pct.1: 0.671
  Slc25a47 avg_logFC: 0.2777
  Slc25a47 pct.1: 0.96
  Slc27a2 avg_logFC: 0.3931
  Slc27a2 pct.1: 0.988
  Slc27a5 avg_logFC: 0.2567
  Slc27a5 pct.1: 0.958
  Slc40a1 avg_logFC: 0.336
  Slc40a1 pct.1: 0.551
  Slco1a4 avg_logFC: 0.4652
  Slco1a4 pct.1: 0.507
  Snord13 avg_logFC: 0.2659
  Snord13 pct.1: 0.386
  Snord118 avg_logFC: 0.5783
  Snord118 pct.1: 0.564
  St3gal5 avg_logFC: 0.3862
  St3gal5 pct.1: 0.71
  Sult1a1 avg_logFC: 0.522
  Sult1a1 pct.1: 0.881
  Sult1d1 avg_logFC: 0.4421
  Sult1d1 pct.1: 0.855
  Tat avg_logFC: 0.2529
  Tat pct.1: 0.981
  Tgoln1 avg_logFC: 0.3801
  Tgoln1 pct.1: 0.756
  Tmbim6 avg_logFC: 0.2624
  Tmbim6 pct.1: 0.988
  Tmed5 avg_logFC: 0.3754
  Tmed5 pct.1: 0.714
  Tmem106b avg_logFC: 0.3285
  Tmem106b pct.1: 0.727
  Tob1 avg_logFC: 0.3731
  Tob1 pct.1: 0.649
  Trp53inp1 avg_logFC: 0.3647
  Trp53inp1 pct.1: 0.551
  Tsc22d3 avg_logFC: 0.3425
  Tsc22d3 pct.1: 0.534
  Ttpa avg_logFC: 0.6266
  Ttpa pct.1: 0.98
  Ttr avg_logFC: 0.3459
  Ttr pct.1: 1
  Ubc avg_logFC: 0.3578
  Ubc pct.1: 0.968
  Ubr3 avg_logFC: 0.2529
  Ubr3 pct.1: 0.585
  Uhrf1bp1l avg_logFC: 0.2559
  Uhrf1bp1l pct.1: 0.415
  Upp2 avg_logFC: −0.2859
  Upp2 pct.1: 0.545
  Uroc1 avg_logFC: 0.3074
  Uroc1 pct.1: 0.726
  Wbp1l avg_logFC: 0.3456
  Wbp1l pct.1: 0.789
  Zfp36l1 avg_logFC: 0.3298
  Zfp36l1 pct.1: 0.601
  Zfp91 avg_logFC: 0.3741
  Zfp91 pct.1: 0.693
  Zfp683 avg_logFC: 0.3027
  Zfp683 pct.1: 0.476
  mt-Co1 avg_logFC: −0.8459
  mt-Co1 pct.1: 0.983
  mt-Co2 avg_logFC: −1.033
  mt-Co2 pct.1: 0.313
  mt-Co3 avg_logFC: −1.046
  mt-Co3 pct.1: 0.213
  mt-Cytb avg_logFC: −0.7105
  mt-Cytb pct.1: 0.99
  mt-Nd1 avg_logFC: −0.5843
  mt-Nd1 pct.1: 0.996
  mt-Nd2 avg_logFC: −0.7197
  mt-Nd2 pct.1: 0.994
  mt-Nd4 avg_logFC: −0.8488
  mt-Nd4 pct.1: 0.986
  mt-Nd5 avg_logFC: −0.573
  mt-Nd5 pct.1: 0.964
  mt-Rnr1 avg_logFC: −0.3398
  mt-Rnr1 pct.1: 1
  mt-Rnr2 avg_logFC: −0.3332
  mt-Rnr2 pct.1: 1
  mt-Tp avg_logFC: 0.3085
  mt-Tp pct.1: 0.329
APAP composite vs UT
  Acaa1b avg_logFC: −0.8508
  Agt avg_logFC: 0.5205
  Ahsg avg_logFC: 0.2925
  Akr1c6 avg_logFC: −1.586
  Ang avg_logFC: 0.7089
  Angptl3 avg_logFC: 0.7089
  Apoa2 avg_logFC: −0.5455
  Apoc1 avg_logFC: −0.8713
  Apoc2 avg_logFC: 0.7821
  Apoe avg_logFC: −0.4213
  Apoh avg_logFC: 0.4118
  Cdo1 avg_logFC: 0.517
  Ces1c avg_logFC: 0.4668
  Chchd1 avg_logFC: 0.7207
  Chchd10 avg_logFC: 0.7207
  Cp avg_logFC: 0.4362
  Cyb5 avg_logFC: −0.7102
  Cyp4a10 avg_logFC: 1.135
  Cyp4a14 avg_logFC: 1.704
  Fabp1 avg_logFC: −1.016
  Fga avg_logFC: 0.8285
  Fgb avg_logFC: 0.745
  Fgg avg_logFC: 0.6805
  Fgl1 avg_logFC: 0.8649
  Fth1 avg_logFC: 0.3784
  Gclc avg_logFC: 1.903
  Gm13775 avg_logFC: −1.078
  Gm15564 avg_logFC: 1.821
  Gm24601 avg_logFC: 0.9844
  Gm26924 avg_logFC: 1.419
  Gpx1 avg_logFC: −0.7686
  Grip2 avg_logFC: 0.8779
  Hbb-bs avg_logFC: 2.862
  Hilpda avg_logFC: 0.7786
  Hmgcs2 avg_logFC: 0.6293
  Hmox1 avg_logFC: 1.348
  Hrg avg_logFC: 0.5189
  Igfbp4 avg_logFC: 0.4353
  Lars2 avg_logFC: 1.711
  Mat1a avg_logFC: 1
  Mfsd2a avg_logFC: 0.6661
  Mt1 avg_logFC: 2.388
  Mt2 avg_logFC: 2.063
  Mup3 avg_logFC: −0.8062
  Mup5 avg_logFC: −1.371
  Mup6 avg_logFC: −2.032
  Mup7 avg_logFC: −1.116
  Mup9 avg_logFC: −2.004
  Mup11 avg_logFC: −3.214
  Mup12 avg_logFC: −1.27
  Mup15 avg_logFC: −1.316
  Mup16 avg_logFC: −1.602
  Mup17 avg_logFC: −2.354
  Mup18 avg_logFC: −1.727
  Mup19 avg_logFC: −2.396
  Mup21 avg_logFC: −1.008
  Ndrg2 avg_logFC: 0.4122
  Nudt7 avg_logFC: −1.564
  Ppl avg_logFC: 0.8798
  Rbp4 avg_logFC: 0.3014
  Retsat avg_logFC: 0.6813
  S100a8 avg_logFC: 1.128
  S100a9 avg_logFC: 1.343
  Saa1 avg_logFC: −1.078
  Selenbp2 avg_logFC: −1.19
  Sephs2 avg_logFC: 0.89
  Sepp1 avg_logFC: 0.4486
  Serpina1a avg_logFC: −0.6752
  Serpina1e avg_logFC: −0.662
  Serpina1d avg_logFC: −0.494
  Slco1a4 avg_logFC: 0.5526
  Snord118 avg_logFC: 0.6174
  Srxn1 avg_logFC: 1.878
  Sult1a1 avg_logFC: 0.5605
  Tnfrsf12a avg_logFC: 1.118
  Ttpa avg_logFC: 0.6012
  Ttr avg_logFC: −0.5306
  mt-Co1 avg_logFC: −1.433
  mt-Co2 avg_logFC: −1.397
  mt-Cytb avg_logFC: −1.571
  mt-Nd1 avg_logFC: −1.42
  mt-Nd2 avg_logFC: −1.242
  mt-Nd4 avg_logFC: −1.957
  mt-Nd5 avg_logFC: −1.384
  mt-Rnr1 avg_logFC: −0.4854
  mt-Rnr2 avg_logFC: −0.7783
  n-R5-8s1 avg_logFC: 1.253
APAP vs UT
  1-Mar logFC: −0.4778
  2-Mar logFC: −0.5599
  1110008F13Rik logFC: −0.4553
  1600014C10Rik logFC: −0.4982
  3110043O21Rik logFC: 0.2694
  8430408G22Rik logFC: −0.5021
  AA474408 logFC: 0.4364
  Aadac logFC: −0.62
  Abca1 logFC: 0.7245
  Abhd2 logFC: 0.4844
  Acox1 logFC: 0.2752
  Acsl4 logFC: 0.3147
  Acss2 logFC: −0.6201
  Adh4 logFC: −0.5269
  Adh5 logFC: −0.4914
  Adh6-ps1 logFC: −0.4185
  Adipor2 logFC: −0.4738
  Agmat logFC: −0.4718
  Ak3 logFC: 0.289
  Akr1c14 logFC: −0.5186
  Akr1c20 logFC: −0.5542
  Akr1e1 logFC: −0.2582
  Alas1 logFC: −0.4898
  Alb logFC: 0.4203
  Alcam logFC: 0.3238
  Aldh1a1 logFC: −0.4788
  Aldh3a2 logFC: −0.8342
  Aldh8a1 logFC: −0.6837
  Aox3 logFC: −0.3333

Reference: US20230053540A1, “TREATMENT OF LIVER INJURY” (Massachusetts Institute of Technology, priority 2019, published 2023)
